Experimental data: patent US4801579A, “Novel cystine compounds, their preparation and use” (Bleiberger Bergwerks Union, priority 1986, dated 1989)
Positions of bridges follow the written chain, without caps; N, C: chain ends. Residues, ends and D or L forms follow the SMILES beside them. Chains are numbered I, II in the order given.

What was measured:
[1] = water solubility of the novel cystine compounds; format: physicochemical
Protocol: (§1) 0.5 g bis-(acetylglycyl)-L,L-cystine are dissolved in 50 ml distilled water. The pH is adjusted to 6.5 by the addition of a 1N sodium hydrogen carbonate solution and then diluted with distilled water to a volume of 100 ml. Of this solution, an HPLC chromatogram is made immediately. The solution is then heated on a boiling water bath.

[2] = heat sterilization stability of the novel cystine compounds; format: physicochemical; conditions: for instance heating to 120° C. for 5 minutes
Protocol: So, for instance, infusion solutions are prepared by dissolving the purified peptide and the desired amino acid in distilled water. Mineral salts and other substances may further be added to these solutions. Prior to administration, they must be isotonically adjusted. Up to now, it has not been possible to sterilize such solutions in the usual manner (5 minutes, 120° C., pH 5.5 to 7.5) without the decomposition of the cystine-containing component. The novel peptides according to the invention permit a heat treatment of the above-mentioned infusion solution without the decomposition of the cystine derivative.

[3] = Testing of the water solubility and thermal stability of bis-(acetylglycyl)-L,L-cystine (HPLC after heating on boiling water bath); format: physicochemical; conditions: 0.5 g in 100 ml water, pH 6.5, boiling water bath, after 10, 20 and 30 minutes of heating
Protocol: as §1

[4] = heat treatment (sterilization) of solutions; cited from earlier work

solubility in water [1]	stability to heat sterilization [2]	change of HPLC chromatogram after heating [3]	Compound	resistance to heat treatment / thermal stability [4]
well soluble in water	stable enough to be heat-sterilizable	does not show any essential changes	CC(=O)NCC(=O)N[C@@H](CSSC[C@H](NC(=O)CNC(C)=O)C(=O)O)C(=O)O [bis-(acetylglycyl)-L,L-cystine] (I: Ac-Gly-Cys-OH / II: Ac-Gly-Cys-OH; disulfide I:2-II:2)	
			N[C@@H](CSSC[C@H](N)C(=O)O)C(=O)O [L,L-cystine]	stable against heat treatment
			N[C@@H](CS)C(=O)O [L-cysteine]	not resistant to heat treatment
